This test addresses T1, human liver FBPase (Homo sapiens, UniProt P09467).
T1 construct: made in house; host or cells: E. coli
T1 sequence (P09467 2-338 limits assumed): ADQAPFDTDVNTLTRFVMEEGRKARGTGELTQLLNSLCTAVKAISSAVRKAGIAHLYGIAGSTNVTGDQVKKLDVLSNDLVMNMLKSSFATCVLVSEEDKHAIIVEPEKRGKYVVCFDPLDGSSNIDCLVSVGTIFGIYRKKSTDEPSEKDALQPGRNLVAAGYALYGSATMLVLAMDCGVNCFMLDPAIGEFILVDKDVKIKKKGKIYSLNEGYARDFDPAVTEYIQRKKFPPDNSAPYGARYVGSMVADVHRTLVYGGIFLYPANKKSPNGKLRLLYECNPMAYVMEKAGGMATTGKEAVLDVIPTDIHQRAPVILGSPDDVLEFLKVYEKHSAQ
Description: FBPase assay: inorganic phosphate release (malachite green). The format is biochemical. The conditions noted are these: recombinant human liver FBPase, 50 μM fructose-1,6-bisphosphate, read-out at 620 nm. The procedure: The following tests were carried out for evaluating the inhibitory activity of the compounds of the present invention against human liver FBPase (Swissprot Data base reference P09467, entry F16P_HUMAN).
Human liver FBPase cDNA (NM_000507) was purchased from Origene Technologies, Inc, subcloned in a vector for expression in E. Coli., and sequenced. Recombinant human liver FBPase (hlFBPase) was purified according to the following protocol that uses heat denaturation similarly to that described by El-Maghrabi et. al. [El-Maghrabi, M. R. et al. “Isolation of a human liver fructose-1,6-bisphosphatase cDNA and expression of the protein in Escherichia coli.” J Biol Chem 268:9466-9472, 1993.]. Briefly, E. coli cells, transiently expressing very high levels of soluble and active human liver FBPase, were suspended in 20 mM Tris-HCl pH 7.5, 1 mM EDTA, 1 mM DTT and were lysed by French press. The soluble extract was heat denatured at 65° C. for 5 min, and insoluble, denatured proteins were removed by centrifugation. The extract was then applied to a BioRad Macro-Prep High Q column equilibrated with 20 mM Tris-HCl pH 7.5, 1 mM EDTA, 1 mM DTT and the flow-through (containing FBPase activity) was collected and applied to a BioRad Macro-Prep HS column equilibrated with 20 mM HEPES pH 7.2, 1 mM DTT. A gradient of increasing NaCl concentration was then applied to the HS column and fractions were collected. Fractions containing active FBPase were pooled and further purified by size exclusion chromatography on a Sephacryl S200 column equilibrated in 20 mM Tris-HCl pH 7.5, 150 mM NaCl, 1 mM EDTA, 1 mM DTT. Purity of the enzyme preparation was >90% as assessed by Mass spectrometry.
Recombinant human liver FBPase (hlFBPase) activity was assayed through measuring the inorganic phosphate release that results from the hydrolysis of Fructose-1,6-bisphosphate by the enzyme. As described by Baykov A. A. et al. in [Baykov A. A et al., “Malachite Green procedure for orthophosphate determination and its use in alkaline phosphatase-based enzyme immunoassays”. Anal. Biochem., 171:266-270, 1988], inorganic phosphate can be readily quantified by spectrophotometry at 620 nm after complexation with ammonium molybdate/malachite green reagent. Enzymatic reaction was carried out with modifications of the procedure described by Wright S. W. et al. [Wright S. W. et al., “Anilinoquinazoline inhibitors of Fructose-1,6-bisphosphatase bind to a novel allosteric site: synthesis, in vitro characterization, and X-ray crystallography”. J. Med. Chem. 45:3865-3877, 2002]. Specifically, the reaction was carried out in 96 well plates in a final volume of 100 μl in the presence or in the absence of allosteric inhibitors. Reaction was started adding 25 ng of hlFBPase to the reaction mixture containing 50 mM HEPES-KOH buffer pH 7.2, 2 mM MgCl2, 2 mM EDTA, 1 mM DTT, 50 μM fructose-1,6-bisphosphate and 1% DMSO. After 50 minutes incubation at room temperature, the phosphate released was allowed to form a colored complex for 10 min by adding 150 μl of ammonium molybdate/malachite green reagent containing 0.03% malachite green, 0.2% ammonium molybdate, 0.05% Triton X-100 and 0.7 M H2SO4 in water that was stirred for 30 min at room temperature and filtered through 0.2 μm filter. Under these conditions, the assay was linear with time and able to detect FBPase inhibition after spectrophotometric read-out at 620 nm.
Consider `COc1sc(NC(=O)NS(=O)(=O)c2cn(C)c3c(OCC(N)=O)cccc23)nc1C` [Example 53, 2-{[3-({[(5-Methoxy-4-methyl-1,3-thiazol-2-yl)carbamoyl]amino}sulfonyl)-1-methyl-1H-indol-7-yl]oxy}acetamide], for which the IC50 – broadly, the point on the concentration scale where inhibition reaches its midpoint – turned out to be 764 nM. With `O=C(Nc1ncc(Br)s1)NS(=O)(=O)c1cc2ccccc2[nH]1` [Example 20, N-[(5-Bromo-1,3-thiazol-2-yl)carbamoyl]-1H-indole-2-sulfonamide], the IC50 is 134 nM. On to `COC(=O)c1ccc2c(S(=O)(=O)NC(=O)Nc3ncc(Br)s3)cn(C)c2c1` [Example 27, Methyl 3-({[(5-bromo-1,3-thiazol-2-yl)carbamoyl]amino}sulfonyl)-1-methyl-1H-indole-6-carboxylate], for which the IC50 came out at 450 nM. Regarding `O=C(Nc1ncc(Br)s1)NS(=O)(=O)c1cc2cccc(OCc3ccccc3)c2s1` [Example 37, 7-(Benzyloxy)-N-[(5-bromo-1,3-thiazol-2-yl)carbamoyl]-1-benzothiophene-2-sulfonamide], the half-inhibitory concentration (IC50) worked out at 972 nM. The same measure for `CCc1nc(NC(=O)NS(=O)(=O)c2cc(C)c(CCOC)s2)sc1CC` [Example 63, N-[(4,5-Diethyl-1,3-thiazol-2-yl)carbamoyl]-5-(2-methoxyethyl)-4-methylthiophene-2-sulfonamide]: 393 nM; for `Cc1cc(S(=O)(=O)NC(=O)Nc2nc(C)c(SC(F)(F)F)s2)sc1CCO` [Example 98, 6-(2-Hydroxyethyl)-4-methyl-N-({4-methyl-5-[(trifluoromethyl)thio]-1,3-thiazol-2-yl}carbamoyl)thiophene-2-sulfonamide]: 177 nM. The same measure for `COc1sc(NC(=O)NS(=O)(=O)c2csc(C)c2)nc1C` [Example 95, N-[(5-Methoxy-4-methyl-1,3-thiazol-2-yl)carbamoyl]-5-methylthiophene-3-sulfonamide]: 594 nM; for `CCc1sc(NC(=O)NS(=O)(=O)c2cc(C)c(CCOC(C)=O)s2)nc1C(C)C` [Example 75, 2-[5-({[(5-Ethyl-4-isopropyl-1,3-thiazol-2-yl)carbamoyl]amino}sulfonyl)-3-methyl-2-thienyl]ethyl acetate]: 256 nM. To `O=C(Nc1ncc(Br)s1)NS(=O)(=O)c1cc2cccc(-c3ccncc3)c2s1` [Example 22, N-[(5-Bromo-1,3-thiazol-2-yl)carbamoyl]-7-pyridin-4-yl-1-benzothiophene-2-sulfonamide] belongs 440 nM; to `O=C(Nc1ncc(Br)s1)NS(=O)(=O)c1csc2ccccc12` [Example 4, N-[(5-Bromo-1,3-thiazol-2-yl)carbamoyl]-1-benzothiophene-3-sulfonamide], 212 nM. `CCc1nc(NC(=O)NS(=O)(=O)c2cc(CCOC)c(C)s2)sc1Br` [Example 59, N-[(5-Bromo-4-ethyl-1,3-thiazol-2-yl)carbamoyl]-4-(2-methoxyethyl)-5-methylthiophene-2-sulfonamide]: the half-maximal inhibitory concentration (IC50) came to 434 nM. To `COc1cnc(NC(=O)NS(=O)(=O)c2cc3cccc(OC)c3s2)s1` [Example 54] belongs 1280 nM.

Consider `COCc1oc(S(=O)(=O)NC(=O)Nc2nc(C)c(Br)s2)cc1C` [Example 35, N-[(5-Bromo-4-methyl-1,3-thiazol-2-yl)carbamoyl]-5-(methoxymethyl)-4-methylfuran-2-sulfonamide], for which the IC50 was 258 nM. In the case of `Cc1cccc2cc(S(=O)(=O)NC(=O)Nc3ncc(Br)s3)sc12` [Example 14, N-[(5-Bromo-1,3-thiazol-2-yl)carbamoyl]-7-methyl-1-benzothiophene-2-sulfonamide], the IC50 came out at 161 nM. To `CCc1nc(NC(=O)NS(=O)(=O)c2csc(C)c2)sc1Br` [Example 57, N-[(5-Bromo-4-ethyl-1,3-thiazol-2-yl)carbamoyl]-5-methylthiophene-3-sulfonamide] belongs 188 nM; to `COCCc1sc(S(=O)(=O)NC(=O)Nc2nc(C)c(OC)s2)cc1C` [Example 96, 5-(2-Methoxyethyl)-N-[(5-methoxy-4-methyl-1,3-thiazol-2-yl)carbamoyl]-4-methylthiophene-2-sulfonamide], 637 nM; to `O=C(Nc1ncc(Br)s1)NS(=O)(=O)c1csc2c(Cl)cccc12` [Example 18, N-[(5-Bromo-1,3-thiazol-2-yl)carbamoyl]-7-chloro-1-benzothiophene-3-sulfonamide], 208 nM.

Consider `Cn1c(S(=O)(=O)NC(=O)Nc2ncc(Br)s2)cc2ccccc21` [Example 8, N-[(5-Bromo-1,3-thiazol-2-yl)carbamoyl]-1-methyl-1H-indole-2-sulfonamide], for which the IC50 came out at 1100 nM. The same measure for `Cn1cc(S(=O)(=O)NC(=O)Nc2ncc(Br)s2)c2cc(OCc3ccccc3)ccc21` [Example 24, 5-(Benzyloxy)-N-[(5-bromo-1,3-thiazol-2-yl)carbamoyl]-1-methyl-1H-indole-3-sulfonamide]: 683 nM; for `O=C(Nc1ncc(Br)s1)NS(=O)(=O)c1cc2cccc(Cl)c2s1` [Example 19, N-[(5-Bromo-1,3-thiazol-2-yl)carbamoyl]-7-chloro-1-benzothiophene-2-sulfonamide]: 268 nM. Turning to `O=C(Nc1ncc(Br)s1)NS(=O)(=O)c1cc2c(s1)CCOC2` [Example 6, N-[(5-Bromo-1,3-thiazol-2-yl)carbamoyl]-6,7-dihydro-4H-thieno[3,2-c]pyran-2-sulfonamide], the IC50 turned out to be 528 nM. As to `COc1cccc2cc(S(=O)(=O)NC(=O)Nc3ncc(Br)s3)sc12` [Example 39, N-[(5-bromo-1,3-thiazol-2-yl)carbamoyl]-7-methoxy-1-benzothiophene-2-sulfonamide], the IC50 turned out to be 105 nM. The same measure for `COc1ccc2nc(NC(=O)NS(=O)(=O)c3cc(C)c(CCOC(C)=O)s3)sc2n1` [Example 55, 2-[5-({[(5-methoxy[1,3]thiazolo[5,4-b]pyridin-2-yl)carbamoyl]amino}sulfonyl)-3-methyl-2-thienyl]ethyl acetate]: 616 nM; for `COCCOc1cccc2cc(S(=O)(=O)NC(=O)Nc3ncc(Br)s3)sc12` [Example 38, N-[(5-bromo-1,3-thiazol-2-yl)carbamoyl]-7-(2-methoxyethoxy)-1-benzothiophene-2-sulfonamide]: 179 nM; for `CCc1nc(NC(=O)NS(=O)(=O)c2cc(C)c(CCO)s2)sc1SC` [Example 84, N-{[4-Ethyl-5-(methylthio)-1,3-thiazol-2-yl]carbamoyl}-5-(2-hydroxyethyl)-4-methylthiophene-2-sulfonamide]: 78 nM.

As to `Cn1cc(S(=O)(=O)NC(=O)Nc2ncc(Br)s2)c2ccc(S(C)(=O)=O)cc21` [Example 30, N-[(5-Bromo-1,3-thiazol-2-yl)carbamoyl]-1-methyl-6-(methylsulfonyl)-1H-indole-3-sulfonamide], the 50% inhibitory concentration (IC50) worked out at 523 nM.

For `CCOC(=O)COc1cccc2c(S(=O)(=O)NC(=O)Nc3ncc(Br)s3)cn(C)c12` [Example 50, Ethyl {[3-({[(5-bromo-1,3-thiazol-2-yl)carbamoyl]amino}sulfonyl)-1-methyl-1H-indol-7-yl]oxy}acetate], the IC50 was determined as 212 nM. Take `Cn1cc(S(=O)(=O)NC(=O)Nc2ncc(Br)s2)c2cccc(Br)c21` [Example 34, 7-Bromo-N-[(5-bromo-1,3-thiazol-2-yl)carbamoyl]-1-methyl-1H-indole-3-sulfonamide]: the IC50 stood at 296 nM.

Source of the values: patent US7973051B2 (Hoffman-La Roche Inc., priority 2007, dated 2011).
